Data reported in patent US20240246954A1, “COMPOSITIONS AND METHODS FOR INHIBITING KRAS” (TheRas, Inc., priority 2021, published 2024).
Where two headings read alike, the source gives them in different places.

How the values were obtained:
GppNHp KRAS G12D = GppNHp KRAS G12D (Homo sapiens, UniProt P01116, G12D); assay: SPR binding affinity, GppNHp KRAS G12D; settings: GppNHp-bound KRAS G12D
[1] = test system: pERK in GP2d cells (KRAS G12D); assay: Cell-based pERK HTRF assay; settings: 60 min incubation
Procedure, shortened: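 GP2d cells (DMEM, 10% FBS) treated 60 min with compounds in a 9-point half-log series from 1 μM top concentration, 0.25% DMSO. Lysates read for pERK by HTRF (d2/Eu cryptate antibodies) after 4–24 h at room temperature; emission at 615 nm.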

[2] = biological target: T1, Avi-KRAS G12D/Q25A (1-169) GppNHp/3×FLAG-PI3KCA (157-299) (Homo sapiens, UniProt P01116, G12D/Q25A); assay: HTRF PI3KCA-KRAS G12D/Q25A-GppNHp disruption assay; assay type: biochemical; settings: 1 h incubation
T1 construct: Avi-KRAS G12D/Q25A (1-169) GppNHp
Procedure, shortened: (§1)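 Compounds titrated from 100 μM in a 10-point series, incubated with protein mix 1 h at room temperature, then HTRF reagents a further 1 h. Time-resolved fluorescence read (excitation 320 nm, emission 615 nm); activity expressed as percentage of DMSO control.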

[3] = biological target: T2, Avi-KRAS G12D (1-169) GppNHp/RAF1 RBD-3×FLAG (52-151) (Homo sapiens, UniProt P01116, G12D); assay: HTRF Raf1-KRAS G12D-GppNHp disruption assay; assay type: biochemical; settings: 1 h incubation
T2 construct: Avi-KRAS G12D (1-169) GppNHp
Procedure, shortened: as §1

GDP KRAS G12D = GDP KRAS G12D (Homo sapiens, UniProt P01116, G12D); assay: SPR binding affinity, GDP KRAS G12D; settings: GDP-bound KRAS G12D
Chain of GDP KRAS G12D (P01116 1-188 isoform P01116-2 G12D): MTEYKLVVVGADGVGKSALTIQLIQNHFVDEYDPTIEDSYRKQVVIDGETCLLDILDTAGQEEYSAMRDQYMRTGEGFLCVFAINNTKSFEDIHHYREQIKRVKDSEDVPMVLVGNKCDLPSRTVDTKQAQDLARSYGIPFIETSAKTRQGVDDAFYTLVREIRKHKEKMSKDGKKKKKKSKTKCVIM

T2 sequence (P01116 1-169 isoform P01116-2 G12D limits assumed): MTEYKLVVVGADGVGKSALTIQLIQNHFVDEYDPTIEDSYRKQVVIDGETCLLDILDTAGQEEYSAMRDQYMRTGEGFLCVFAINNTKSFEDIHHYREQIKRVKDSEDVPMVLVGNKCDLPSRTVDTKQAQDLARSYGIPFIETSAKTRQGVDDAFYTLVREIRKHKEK
T1 sequence (P01116 1-169 isoform P01116-2 G12D/Q25A limits assumed): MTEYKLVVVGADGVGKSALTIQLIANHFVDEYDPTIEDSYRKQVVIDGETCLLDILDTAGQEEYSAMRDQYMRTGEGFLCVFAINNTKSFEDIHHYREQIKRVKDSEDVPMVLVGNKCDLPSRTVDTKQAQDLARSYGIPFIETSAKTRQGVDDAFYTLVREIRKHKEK
Chain of GppNHp KRAS G12D (P01116 1-188 isoform P01116-2 G12D): as the sequence (P01116 1-188 isoform P01116-2 G12D) above

Compound | Kd (GppNHp KRAS G12D) | IC50 ([1]; GP2d, 1 h) | IC50 [2] | IC50 [3] | Kd (GDP KRAS G12D) | IC50 ([1]; read-out: pERK-Gp2D-1hr)
N#Cc1c(N)sc2c(F)ccc(-c3c(C(F)(F)F)cc4c(N5C[C@H]6CC[C@@H](C5)N6)nc(OC[C@@]56CCCN5C[C@H](F)C6)nc4c3F)c12 [Compound 255, 4-(4-((1R,5S)-3,8-diazabicyclo[3.2.1]octan-3-yl)-8-fluoro-2-(((2R,7aS)-2-fluorotetrahydro-1H-pyrrolizin-7a(5H)-yl)methoxy)-6-(trifluoromethyl)quinazolin-7-yl)-2-amino-7-fluorobenzo[b]thiophene-3-carbonitrile] | ≤ 100 nM | ≤ 100 nM | 100 to 1000 nM | ≤ 100 nM | ≤ 100 nM | 
Nc1nc2c(-c3c(C(F)(F)F)cc4c(N5CC6CC5CN6)nc(OC[C@@]56CCCN5C[C@H](F)C6)nc4c3F)ccc(F)c2s1 (stereo partly shown) [Compound 241] | ≤ 100 nM |  | 100 to 1000 nM | 100 to 1000 nM | ≤ 100 nM | ≤ 100 nM
N#Cc1c(N)sc2c(F)ccc(-c3c(C(F)F)cc4c(N5C[C@H]6CC[C@@H](C5)N6)nc(OC[C@@]56CCCN5C[C@H](F)C6)nc4c3F)c12 [Compound 301, 4-(4-((1R,5S)-3,8-diazabicyclo[3.2.1]octan-3-yl)-6-(difluoromethyl)-8-fluoro-2-(((2R,7aS)-2-fluorotetrahydro-1H-pyrrolizin-7a(5H)-yl)methoxy)quinazolin-7-yl)-2-amino-7-fluorobenzo[b]thiophene-3-carbonitrile] | ≤ 100 nM | ≤ 100 nM | 100 to 1000 nM | 100 to 1000 nM | ≤ 100 nM | 
Nc1nc2c(-c3c(Cl)cc4c(N5CCNCC5)ncnc4c3F)ccc(F)c2s1 [Compound 1, 4-(6-chloro-8-fluoro-4-(piperazin-1-yl)quinazolin-7-yl)-7-fluorobenzo[d]thiazol-2-amine] | 10000 to 30000 nM |  | 10000 to 30000 nM | 10000 to 30000 nM | 1000 to 10000 nM | 
CN(c1nc(OC[C@@]23CCCN2C[C@H](F)C3)nc2c(F)c(-c3ccc(F)c4sc(N)nc34)c(C(F)(F)F)cc12)[C@H]1CNC[C@H]1F [Compound 290] | 100 to 1000 nM | ≤ 100 nM | 100 to 1000 nM | 100 to 1000 nM | ≤ 100 nM | 
CN(C)C1CN(c2nc(NCCN)c3cc(Cl)c(-c4ccc(F)c5sc(N)nc45)c(F)c3n2)C1 [Compound 46, N^1-(7-(2-amino-7-fluorobenzo[d]thiazol-4-yl)-6-chloro-2-(3-(dimethylamino)azetidin-1-yl)-8-fluoroquinazolin-4-yl)ethane-1,2-diamine] | 10000 to 30000 nM |  | 10000 to 30000 nM | 10000 to 30000 nM | 1000 to 10000 nM | 
Nc1nc2c(-c3c(C(F)(F)F)cc4c(N[C@@H]5CCNC5)nc(OC[C@@]56CCCN5C[C@H](F)C6)nc4c3F)ccc(F)c2s1 (atropisomer, axis not shown) [Compound 249] | 1000 to 10000 nM |  | 10000 to 30000 nM | 1000 to 10000 nM | ≤ 100 nM | 
Nc1nc2c(-c3c(C(F)(F)F)cc4c(N5CC6CCC(C5)N6)nc(OC[C@@]56CCCN5C[C@H](F)C6)nc4c3F)ccc(F)c2s1 (single isomer, unassigned) [Compound 246] | 1000 to 10000 nM |  | 1000 to 10000 nM | 1000 to 10000 nM | ≤ 100 nM | 
CN1CCC[C@H]1COc1nc(N2CCN[C@@H](CC#N)C2)c2cc(Cl)c(-c3ccc(F)c4sc(N)nc34)c(F)c2n1 [Compound 56] | 10000 to 30000 nM |  | 10000 to 30000 nM | 10000 to 30000 nM | 100 to 1000 nM | 
Nc1nc2c(-c3c(Cl)cc4c(NC5CNC5)nc(OCC56CCCN5CCC6)nc4c3F)ccc(F)c2s1 [Compound 89] | 100 to 1000 nM |  | 1000 to 10000 nM | 1000 to 10000 nM |  | 
Cc1ccc2[nH]ncc2c1-c1c(Cl)cc2c(NCCN)nc(OC[C@@H]3CCCN3C)nc2c1F [Compound 62] | 10000 to 30000 nM |  | 10000 to 30000 nM | 10000 to 30000 nM |  | 
NCCNc1nc(OCC23CCCN2CCC3)nc2c(F)c(-c3ccc(F)c4sc(N)nc34)c(Cl)cc12 [Compound 77] | 100 to 1000 nM |  | 1000 to 10000 nM | 1000 to 10000 nM |  | 
CN1CCC[C@H]1COc1nc(NCCN)c2cc(Cl)c(-c3ccc(F)c4sc(N)nc34)c(F)c2n1 [Compound 49] | 1000 to 10000 nM |  | 1000 to 10000 nM | 1000 to 10000 nM | ≤ 100 nM | 
N#CC[C@H]1CN(c2ncnc3c(F)c(-c4ccc(F)c5sc(N)nc45)c(Cl)cc23)CCN1C(=O)CN [Compound 29] | 10000 to 30000 nM |  | 10000 to 30000 nM | 10000 to 30000 nM | 1000 to 10000 nM | 
CN1CCC[C@H]1COc1nc(N2CCN(C(=O)CN)[C@@H](CC#N)C2)c2cc(Cl)c(-c3ccc(F)c4sc(N)nc34)c(F)c2n1 [Compound 54] | 1000 to 10000 nM |  | 1000 to 10000 nM | 1000 to 10000 nM | 100 to 1000 nM | 
